Source: patent US20240199555A1, “APPLICATIONS OF BIASED LIGANDS OF THE SEROTONIN 5-HT7 RECEPTOR FOR THE TREATMENT OF PAIN, MULTIPLE SCLEROSIS AND THE CONTROL OF THERMOREGULATION” (Centre National de la Recherche Scientifique, priority 2021, published 2024)
Read-outs that look alike come from different tables or passages of the source.

Tests used:
[1] = molecular target: human 5-HT7a receptor (Homo sapiens (Human), UniProt P34969); assay: Radioligand binding competition, filtration binding assay, 5-HT7a; conditions: affinity on 5-HT7 receptor, table of new compounds
Method: (§1) FIG. 14: Testing of 8 molecules for radioligand binding competition activity on recombinant human 5-HT1A, 5-HT2A, 5-HT2Cedited, 5-HT6, 5-HT7 and D2(long) receptors using filtration binding assays.
(§2) Radioligand Binding experiments were conducted with Epics Therapeutics membrane preparations. Receptor accession numbers, cellular background and reference compounds are shown in this table.
Reference values thus obtained for the test were compared to historical values obtained from the same receptor and used to validate the experimental session. For replicate determinations, the maximum variability tolerated in the test was of +/−20% around the average of the replicates.
(§3) Dose-response data from test compounds were analyzed with XLfit (IDBS) software using nonlinear regression applied to a sigmoidal dose-response model and the following equation: • XL Fit fit Model 203: 4 Parameter Logistic Model • A: Bottom • B: TOP • C: LogEC50 • D: Hill

[2] = molecular target: human 5-HT2Cedited receptor (Homo sapiens, UniProt P28335); assay: Radioligand binding competition, 5-HT2Cedited
Method: as §1, §2
(§4) The new compounds have been tested by radioligand binding competition activity at the human 5-HT1A (FAST-0500B), 5-HT2A (FAST-0505B), 5-HT2Cedited (FAST-0507B), 5-HT6 (FAST-0509B), 5-HT7a (FAST-05111B) and D2(long) (FAST-0101B) receptors at seven (7) concentrations, in duplicate. […] Reference values thus obtained for the test were compared to historical values obtained from the same receptor and used to validate the experimental session. For replicate determinations, the maximum variability tolerated in the test was of +/−20% around the average of the replicates.
as §3

[3] = molecular target: human 5-HT1A receptor (Homo sapiens (Human), UniProt P08908); assay: Radioligand binding competition, 5-HT1A; conditions: selectivity panel; for IC50: read-out: RLB 5-HT1A IC50; for Ki: read-out: RLB 5-HT1A Ki
Method: as §1, §2, §4, §3

[4] = molecular target: human 5-HT2A receptor (Homo sapiens (Human), UniProt P28223); assay: Radioligand binding competition, 5-HT2A; conditions: selectivity panel; for IC50: read-out: RLB 5-HT2A IC50; for Ki: read-out: RLB 5-HT2A Ki
Method: as §1, §2, §4, §3

[5] = tested on: mice; assay: Tail immersion test (50° C.); assay type: in vivo; conditions: administrated alone, i.p.
Method: (A) Experimental protocol summary used. (B) Mice were subcutaneously injected with two different doses of the 5-HT7 receptor agonist Serodolin, 1 mg/kg or 5 mg/kg and 10 min later their tail extremity was immersed in water heated to 50 degrees. […] The effect of injections (Serodolin or E55888) was evaluated at TO, 30 min and 60 min corresponding to 10, 40 and 70 min after compound injections. […] Their tail extremity was immersed in water heated to 50 degrees at TO (E) or 30 min later (F) corresponding to 10 and 40 min after agonist injections. […] Statistical analysis was done using Tukey's multiple comparison test.
Tail immersion test. Nociception was assessed with the tail immersion test, 10 min and 40 min after E55888 (5 mg/kg) or Serodolin (5 mg/kg) tail subcutaneous injections, in the water heated to 50° C. Vehicle (20% DMSO, 5% Tween 80 diluted in PBS solution) was used as a control group. These different groups were intraperitoneally injected (+) or not (−) with the 5-HT7R antagonist SB269960 (5 mg/kg) 10 min before the ligand injection. The tail withdrawal latency (s) was measured for each animal.

Chain of human 5-HT2Cedited receptor (P28335 33-458 limits assumed): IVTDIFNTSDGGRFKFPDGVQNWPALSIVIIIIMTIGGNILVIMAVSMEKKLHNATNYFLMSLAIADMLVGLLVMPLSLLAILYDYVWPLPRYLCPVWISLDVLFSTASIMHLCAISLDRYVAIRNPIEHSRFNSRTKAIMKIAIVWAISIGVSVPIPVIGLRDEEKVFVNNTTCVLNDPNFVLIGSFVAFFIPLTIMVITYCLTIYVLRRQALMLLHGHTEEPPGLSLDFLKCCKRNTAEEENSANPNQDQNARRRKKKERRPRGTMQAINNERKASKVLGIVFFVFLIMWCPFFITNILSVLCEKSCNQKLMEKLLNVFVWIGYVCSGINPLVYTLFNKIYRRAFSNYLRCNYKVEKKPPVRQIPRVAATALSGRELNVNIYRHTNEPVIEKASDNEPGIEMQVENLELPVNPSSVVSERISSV
Chain of human 5-HT2A receptor (P28223 whole entry): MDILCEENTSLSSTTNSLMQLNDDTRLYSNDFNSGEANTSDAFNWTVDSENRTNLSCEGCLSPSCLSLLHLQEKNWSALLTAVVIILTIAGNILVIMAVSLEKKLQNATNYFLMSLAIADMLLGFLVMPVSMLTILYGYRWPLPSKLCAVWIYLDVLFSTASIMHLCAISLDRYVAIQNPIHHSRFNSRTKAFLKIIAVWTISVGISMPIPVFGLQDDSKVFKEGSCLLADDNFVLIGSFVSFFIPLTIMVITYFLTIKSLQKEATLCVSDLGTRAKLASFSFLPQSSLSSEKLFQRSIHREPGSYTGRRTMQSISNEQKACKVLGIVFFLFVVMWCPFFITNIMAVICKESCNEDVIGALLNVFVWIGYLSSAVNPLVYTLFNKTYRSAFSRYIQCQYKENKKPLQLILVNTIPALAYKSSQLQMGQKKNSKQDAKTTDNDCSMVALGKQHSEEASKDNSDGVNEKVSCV
Chain of human 5-HT1A receptor (P08908 whole entry): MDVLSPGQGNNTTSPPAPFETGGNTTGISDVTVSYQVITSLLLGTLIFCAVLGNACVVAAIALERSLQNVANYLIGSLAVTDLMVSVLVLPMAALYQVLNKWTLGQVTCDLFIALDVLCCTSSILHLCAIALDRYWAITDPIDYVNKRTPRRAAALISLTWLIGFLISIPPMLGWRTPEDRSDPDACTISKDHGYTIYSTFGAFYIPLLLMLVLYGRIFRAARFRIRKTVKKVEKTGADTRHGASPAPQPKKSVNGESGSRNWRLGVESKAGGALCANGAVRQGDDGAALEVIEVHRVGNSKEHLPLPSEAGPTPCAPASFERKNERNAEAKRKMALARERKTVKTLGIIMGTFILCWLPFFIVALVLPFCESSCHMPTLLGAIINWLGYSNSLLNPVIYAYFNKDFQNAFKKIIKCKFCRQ
Chain of human 5-HT7a receptor (P34969 other isoform, or with tags, fused parts or gaps): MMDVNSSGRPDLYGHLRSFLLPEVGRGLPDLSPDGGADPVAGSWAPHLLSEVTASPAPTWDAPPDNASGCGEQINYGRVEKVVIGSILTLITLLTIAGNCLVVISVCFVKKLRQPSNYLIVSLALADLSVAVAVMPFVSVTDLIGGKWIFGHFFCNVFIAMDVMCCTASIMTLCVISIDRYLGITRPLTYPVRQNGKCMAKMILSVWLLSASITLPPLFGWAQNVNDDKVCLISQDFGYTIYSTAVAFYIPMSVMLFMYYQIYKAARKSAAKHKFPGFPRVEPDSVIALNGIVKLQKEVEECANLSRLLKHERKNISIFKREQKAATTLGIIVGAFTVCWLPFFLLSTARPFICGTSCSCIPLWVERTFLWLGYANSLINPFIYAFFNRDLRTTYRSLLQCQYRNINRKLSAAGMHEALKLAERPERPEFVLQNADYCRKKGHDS

| SMILES | IC50 [1] | Ki [1] | also measured |
| --- | --- | --- | --- |
| O=c1[nH]c2ccccc2n1CCCCCN1CCN(c2ccccc2O)CC1 [JLB010] | 7.99 nM | 5.61 nM | – |
| O=c1[nH]c2ccccc2n1CN1CCN(c2ccccc2C(F)(F)F)CC1 [JLB011] | 4.74 nM | 3.33 nM | – |
| O=c1[nH]c2ccccc2n1CCCCCN1CCN(c2ccccn2)CC1 [JLB012] | 1.69 nM | 1.18 nM | IC50 ([2]; read-out: RLB 5-HT2Cedited IC50; selectivity panel): 5250 nM; Ki ([2]; read-out: RLB 5-HT2Cedited Ki; selectivity panel): 863 nM; IC50 [3]: 41.3 nM; Ki [3]: 20.7 nM; IC50 [4]: 44.2 nM; Ki [4]: 7.3 nM |
| O=c1[nH]c2ccccc2n1CCCCCN1CCN(c2ncccn2)CC1 [JLB013] | 9.68 nM | 6.8 nM | – |
| O=c1[nH]c2ccccc2n1CCCCCN1CCN(c2ccccc2F)CC1 [JLB014] | 3.29 nM | 2.31 nM | – |
| O=c1[nH]c2ccccc2n1CCCCCN1CCN(c2ccc(F)cc2)CC1 [JLB015] | 4.39 nM | 3.09 nM | – |
| CC(C)(CCN1CCN(c2ccc(F)cc2)CC1)CCn1c(=O)[nH]c2ccccc21 [JLB094] | 2.7 nM | 1.9 nM | IC50 ([2]; selectivity panel; read-out: RLB 5-HT2Cedited IC50): 1100 nM; Ki ([2]; selectivity panel; read-out: RLB 5-HT2Cedited Ki): 181 nM; IC50 [3]: 167 nM; Ki [3]: 83.6 nM; IC50 [4]: 6.23 nM; Ki [4]: 1.02 nM |
| O=c1[nH]ccn1CCCCCN1CCN(c2ccc(F)cc2)CC1 [JLB102, 1-(5-(4-(4-fluorophenyl)piperazin-1-yl)pentyl)-1H-imidazol-2(3H)-one] | 17 nM | 11.9 nM | – |
| CC1CCN(CC[C@H]2CCCN2S(=O)(=O)c2cccc(O)c2)CC1 [SB269970, reference compound] | – | – | acute thermal nociception, antagonist administrated alone [5]: did not exert any significant effect on acute thermal nociception |

Second part, led by results:

| IC50 [1] | Ki [1] | SMILES | also measured |
| --- | --- | --- | --- |
| 7.19 nM | 5.05 nM | O=c1[nH]c2ccccc2n1CCCCCN1CCN(c2ccc(C(F)(F)F)cc2)CC1 [JLB017] | – |
| 260 nM | 182 nM | O=c1[nH]c2ccccc2n1CCCCCN1CCN(c2ccncc2)CC1 [JLB020] | – |
| 136 nM | 95.5 nM | O=c1[nH]c2ccccc2n1CCCCCN1CCN(c2ccncn2)CC1 [JLB022] | – |
| 370 nM | 260 nM | O=c1[nH]c2ccccc2n1CCCCCN1CCN(c2ncncn2)CC1 [JLB023] | – |
| 19.1 nM | 13.4 nM | O=c1[nH]c2ccccc2n1CCOCCN1CCN(c2ccc(F)cc2)CC1 [JLB048] | – |
| 5.97 nM | 4.19 nM | O=c1[nH]c2ccccc2n1CCCCCN1C[C@@H]2CN(c3ccc(F)cc3)C[C@@H]2C1 [JLB061] | – |
| 174 nM | 122 nM | O=c1[nH]c2ccccc2n1CCCCCN1CC2(C1)CN(c1ccc(F)cc1)C2 [JLB088, 1-(5-(6-(4-fluorophenyl)-2,6-diazaspiro[3.3]heptan-2-yl)pentyl)-1H-benzo[d]imidazol-2(3H)-one] | – |
| 69.7 nM | 48.9 nM | O=c1[nH]c2ccccc2n1CCCCCN1CCCN(c2ccccn2)CC1 [JLB118, 1-(5-(4-(pyridin-2-yl)-1,4-diazepan-1-yl)pentyl)-1H-benzo[d]imidazol-2(3H)-one] | – |
| 24.2 nM | 17 nM | Cc1ccc(N2CCCN(CCCCCn3c(=O)[nH]c4ccccc43)CC2)cc1 [JLB119, 1-(5-(4-(p-tolyl)-1,4-diazepan-1-yl)pentyl)-1H-benzo[d]imidazol-2(3H)-one] | – |
| 687 nM | 482 nM | Cc1ccc(N2CC3(CN(CCCCCn4c(=O)[nH]c5ccccc54)C3)C2)cc1 [JLB137, 1-(5-(6-(p-tolyl)-2,6-diazaspiro[3.3]heptan-2-yl)pentyl)-1H-benzo[d]imidazol-2(3H)-one] | – |
| 5070 nM | 3560 nM | O=c1[nH]c2ccccc2n1CCCCCN1CC2(C1)CN(c1ccccn1)C2 [JLB138, 1-(5-(6-(pyridin-2-yl)-2,6-diazaspiro[3.3]heptan-2-yl)pentyl)-1H-benzo[d]imidazol-2(3H)-one] | – |
| 1.95 nM | 1.37 nM | O=c1[nH]c2ccccc2n1CCCCCN1CCN(c2ccc(O)cc2)CC1 [MOA43] | – |
